{"source": "paper PMC9281306", "about": "(ACS Omega, 2022)", "key": {"[1]": {"tested_on": "Mabs ATCC 19977R rough morphotype", "assay": "Mabs microdilution antimicrobial assay with purified peptides", "format": "cell-based, Mycobacterium abscessus", "conditions": "purified peptide, MHB with EDTA 100 μM, 96 h, 37 °C, OD600, three independent experiments"}, "[2]": {"tested_on": "Mabs ATCC 19977S smooth morphotype", "assay": "Mabs microdilution antimicrobial assay with purified peptides", "format": "cell-based, Mycobacterium abscessus", "conditions": "purified peptide, MHB with EDTA 100 μM, 96 h, 37 °C, OD600, three independent experiments"}, "MRSA USA300": {"tested_on": "MRSA USA300", "assay": "Cross-inhibitory activity assay", "format": "cell-based, Staphylococcus aureus", "conditions": "MHB, 24 h, 37 °C; EDTA not given"}, "[3]": {"tested_on": "P. aeruginosa (ATCC 27853)", "assay": "Cross-inhibitory activity assay", "format": "cell-based, Pseudomonas aeruginosa", "conditions": "MHB, 24 h, 37 °C; EDTA not given"}, "E. coli (ATCC 25922)": {"tested_on": "E. coli (ATCC 25922)", "assay": "Cross-inhibitory activity assay", "format": "cell-based, Escherichia coli", "conditions": "MHB, 24 h, 37 °C; EDTA not given"}, "[4]": {"tested_on": "human red blood cell (hRBC)", "assay": "hRBC hemolytic assay", "format": "cell-based"}, "[5]": {"tested_on": "E. coli urinary tract infection clinical isolates", "conditions": "MIC in MHB, 22 h, 37 °C, triplicate"}}, "note": "Read-outs that look alike come from different tables or passages of the source. Where a SMILES comes first, the peptide text is derived from it. [ ]: non-standard residue; d: D form."}
{"molecule": "CC(C)C[C@@H](NC(=O)[C@@H](C)NC(=O)[C@@H](CCCCN)NC(=O)[C@@H](CCCNC(=N)N)NC(=O)[C@H](Cc1ccccc1)NC(=O)[C@H](CCC(N)=O)NC(=O)[C@H](CC(N)=O)NC(=O)[C@@H](NC(=O)[C@@H](CCCCN)NC(=O)[C@@H](CCCNC(=N)N)NC(=O)[C@H](C)NC(=O)[C@@H](CCCCN)NC(=O)[C@H](CO)NC(=O)[C@@H](CC(C)C)NC(=O)CNC(=O)[C@H](Cc1ccc(O)cc1)NC(=O)[C@H](N)CCCNC(=N)N)C(C)C)C(N)=O", "note": "[ASU2009] (H-[dR]YG[dL]S[dK]A[dR][dK]VNQF[dR][dK][dA][dL]-NH2)", "values": [{"measurement": "Mabs ATCC19977R MIC", "setting": "[1]", "result": 256, "unit": "µM"}, {"measurement": "Mabs ATCC19977S MIC", "setting": "[2]", "result": 256, "unit": "µM"}]}
{"molecule": "CC(C)C[C@@H](NC(=O)CNC(=O)[C@@H](Cc1c[nH]c2ccccc12)NC(=O)[C@@H](CCCNC(=N)N)NC(=O)[C@@H](N)CCC(N)=O)C(=O)N[C@@H](CO)C(=O)N[C@H](CC(C)C)C(=O)N[C@@H](C)C(=O)N1CCC[C@H]1C(=O)N[C@@H](Cc1ccc(O)cc1)C(=O)N[C@H](CCCCN)C(=O)N[C@@H](CC(N)=O)C(=O)N[C@@H](Cc1ccccc1)C(=O)N[C@H](CCCNC(=N)N)C(=O)N[C@H](CCCNC(=N)N)C(=O)N[C@H](CC(C)C)C(=O)N[C@@H](CO)C(N)=O", "note": "[ASU2056] (H-Q[dR][dW]G[dL]S[dL]APY[dK]NF[dR][dR][dL]S-NH2)", "values": [{"measurement": "MRSA USA300 MIC", "setting": "MRSA USA300", "result": ">32", "unit": "µM"}, {"measurement": "P. aeruginosa ATCC 27853 MIC", "setting": "[3]", "result": ">32", "unit": "µM"}, {"measurement": "E. coli ATCC 25922 MIC", "setting": "E. coli (ATCC 25922)", "result": 16, "unit": "µM"}, {"measurement": "Mabs ATCC19977R MIC", "setting": "[1]", "result": ">256", "unit": "µM"}, {"measurement": "Mabs ATCC19977S MIC", "setting": "[2]", "result": 32, "unit": "µM"}]}
{"molecule": "CC(C)C[C@@H](NC(=O)CNC(=O)[C@H](CO)NC(=O)[C@@H](CCCCN)NC(=O)[C@@H](CCCNC(=N)N)NC(=O)[C@@H](Cc1c[nH]c2ccccc12)NC(=O)[C@@H](CCCNC(=N)N)NC(=O)[C@H](Cc1ccccc1)NC(=O)[C@H](CC(N)=O)NC(=O)[C@H](Cc1ccc(O)cc1)NC(=O)[C@@H](CCCNC(=N)N)NC(=O)[C@H](C)NC(=O)[C@H](CO)NC(=O)[C@@H](Cc1c[nH]c2ccccc12)NC(=O)[C@@H](CCCNC(=N)N)NC(=O)CNC(=O)[C@@H](N)C(C)C)C(N)=O", "note": "[ASU2060] (H-VG[dR][dW]SA[dR]YNF[dR][dW][dR][dK]SG[dL]-NH2)", "values": [{"measurement": "hRBC hemolysis", "setting": "[4]; 32 µM", "result": "less than 1%"}, {"measurement": "MRSA USA300 MIC", "setting": "MRSA USA300", "result": 8, "unit": "µM"}, {"measurement": "P. aeruginosa ATCC 27853 MIC", "setting": "[3]", "result": 8, "unit": "µM"}, {"measurement": "E. coli ATCC 25922 MIC", "setting": "E. coli (ATCC 25922)", "result": 4, "unit": "µM"}, {"measurement": "Mabs ATCC19977R MIC", "setting": "[1]", "result": 256, "unit": "µM"}, {"measurement": "Mabs ATCC19977S MIC", "setting": "[2]", "result": 8, "unit": "µM"}]}
{"molecule": "CC(C)C[C@@H](NC(=O)[C@@H](C)NC(=O)[C@H](CO)NC(=O)[C@@H](CCCCN)NC(=O)[C@@H](CCCNC(=N)N)NC(=O)[C@@H](CCCNC(=N)N)NC(=O)[C@H](Cc1ccccc1)NC(=O)[C@@H](CC(C)C)NC(=O)[C@H](CC(N)=O)NC(=O)[C@H](Cc1c[nH]cn1)NC(=O)[C@@H]1CCCN1C(=O)[C@H](C)NC(=O)[C@H](CO)NC(=O)[C@@H]1CCCN1C(=O)CNC(=O)[C@@H](NC(=O)[C@H](N)CCCNC(=N)N)C(C)C)C(N)=O", "note": "[ASU2019] (H-[dR]VGPSAPHN[dL]F[dR][dR][dK]S[dA][dL]-NH2)", "values": [{"measurement": "Mabs ATCC19977R MIC", "setting": "[1]", "result": 256, "unit": "µM"}, {"measurement": "Mabs ATCC19977S MIC", "setting": "[2]", "result": 256, "unit": "µM"}]}
{"molecule": "CC1(C)S[C@@H]2[C@H](NC(=O)[C@H](N)c3ccccc3)C(=O)N2[C@H]1C(=O)O", "note": "[Ampicillin]", "values": [{"measurement": "Ampicillin susceptibility", "setting": "[5]; E. coli clinical isolate 23", "result": "susceptible"}, {"measurement": "Ampicillin susceptibility", "setting": "[5]; E. coli clinical isolate 36", "result": "resistant"}, {"measurement": "Ampicillin susceptibility", "setting": "[5]; E. coli clinical isolate 97", "result": "resistant"}, {"measurement": "Ampicillin susceptibility", "setting": "[5]; E. coli clinical isolate 98", "result": "resistant"}]}
{"molecule": "Triton X-100 [reference compound]", "values": [{"measurement": "hRBC lysis by positive control", "setting": "[4]; 1%, 4% hRBC in saline, 37 °C, OD475", "result": "complete hRBC lysis"}]}
{"molecule": "CC(C)C[C@@H](NC(=O)[C@@H](C)NC(=O)CNC(=O)[C@@H](CC(C)C)NC(=O)[C@@H](CCCCN)NC(=O)[C@@H](CCCNC(=N)N)NC(=O)[C@@H](CCCNC(=N)N)NC(=O)[C@H](CC(N)=O)NC(=O)[C@H](Cc1ccc(O)cc1)NC(=O)[C@@H](CCCNC(=N)N)NC(=O)[C@H](C)NC(=O)[C@H](CO)NC(=O)[C@@H](CCCNC(=N)N)NC(=O)CNC(=O)[C@@H](N)Cc1ccc(O)cc1)C(=O)N[C@@H](CO)C(=O)NCC(N)=O", "note": "[ASU2059] (H-YG[dR]SA[dR]YN[dR][dR][dK][dL]G[dA][dL]SG-NH2)", "values": [{"measurement": "Mabs ATCC19977R MIC", "setting": "[1]", "result": 256, "unit": "µM"}, {"measurement": "Mabs ATCC19977S MIC", "setting": "[2]", "result": 256, "unit": "µM"}]}
